Legend:
Assay in all cases: relative viability (nuclei count vs DMSO), 5 days (fraction); higher = more cells survive
[1] = compound: O=c1[nH]cc(F)c(=O)[nH]1 [5-Fluorouracil] + Cc1nc(Nc2ncc(C(=O)Nc3c(C)cccc3Cl)s2)cc(N2CCN(CCO)CC2)n1 [Dasatinib] (partner 0.075 µM)
Procedure, shortened: (§1)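 Lung cancer cell lines, seeded in 1536-well plates, were treated the following day by pin tool with a single drug or with five library-drug doses (not always all listed) in √10 steps on top of a fixed anchor-drug dose. Cells were fixed and nuclei stained in one step after 5 days, and nuclei were counted. Relative viability is the nuclei count for treated wells divided by that for vehicle wells, reported as medians of duplicate plates.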

Sulindac + Bortezomib = compound: CC1=C(CC(=O)O)c2cc(F)ccc2/C1=C\c1ccc([S+](C)[O-])cc1 [Sulindac] + CC(C)C[C@H](NC(=O)[C@H](Cc1ccccc1)NC(=O)c1cnccn1)B(O)O [Bortezomib] (partner 0.002 µM)
Procedure, shortened: as §1

Sulindac + Linsitinib = compound: CC1=C(CC(=O)O)c2cc(F)ccc2/C1=C\c1ccc([S+](C)[O-])cc1 [Sulindac] + C[C@]1(O)C[C@@H](c2nc(-c3ccc4ccc(-c5ccccc5)nc4c3)c3c(N)nccn32)C1 [Linsitinib] (partner 1 µM)
Procedure, shortened: as §1

Sulindac + Phenformin = compound: CC1=C(CC(=O)O)c2cc(F)ccc2/C1=C\c1ccc([S+](C)[O-])cc1 [Sulindac] + N=C(N)NC(=N)NCCc1ccccc1 [Phenformin] (partner 250 µM)
Procedure, shortened: as §1

Cell Line	relative viability ([1]; first compound 0.02 µM)	relative viability ([1]; first compound 0.2 µM)	relative viability ([1]; first compound 0.6325 µM)	relative viability ([1]; first compound 2 µM)	relative viability (Sulindac + Bortezomib; first compound 0.08 µM)	relative viability (Sulindac + Bortezomib; first compound 0.253 µM)	relative viability (Sulindac + Bortezomib; first compound 2.53 µM)	relative viability (Sulindac + Bortezomib; first compound 8 µM)	relative viability (Sulindac + Linsitinib; first compound 0.08 µM)	relative viability (Sulindac + Linsitinib; first compound 0.253 µM)	relative viability (Sulindac + Linsitinib; first compound 0.8 µM)	relative viability (Sulindac + Linsitinib; first compound 2.53 µM)	relative viability (Sulindac + Linsitinib; first compound 8 µM)	relative viability (Sulindac + Phenformin; first compound 0.08 µM)	relative viability (Sulindac + Phenformin; first compound 0.253 µM)	relative viability (Sulindac + Phenformin; first compound 2.53 µM)	relative viability (Sulindac + Phenformin; first compound 8 µM)	relative viability (Sulindac + Bortezomib; first compound 0.8 µM)	relative viability (Sulindac + Phenformin; first compound 0.8 µM)
NCI-H1651	0.438	0.363	0.276	0.401	1.01	0.953	0.958	1.04	1.1	1.01	0.777	0.955	1.27	0.399	0.342	0.307	0.362	–	–
HCC-15	0.701	0.713	0.417	0.275	1.34	1.08	1.07	1.07	0.966	0.868	0.739	0.913	0.921	0.54	0.468	0.491	0.57	0.676	0.323
LCLC-103H	0.493	0.417	0.326	0.251	1.24	1.11	1.05	1.21	1.18	1.22	0.94	1.04	1.2	0.361	0.318	0.315	0.323	0.948	0.286
NCI-H2347	0.334	0.328	0.295	0.224	0.884	0.97	0.86	1.11	1.07	1.09	0.982	1.06	1.16	0.379	0.33	0.375	0.381	0.704	–
NCI-H1915	0.305	0.31	0.303	0.266	1.18	1.08	0.956	1.05	1.13	1.14	1.09	1.11	1.07	0.445	0.389	0.378	0.382	0.861	–
NCI-H650	0.444	0.341	0.287	0.336	0.845	0.877	0.897	1.08	0.973	0.87	0.62	0.817	1.23	0.448	0.466	0.471	0.502	0.862	0.389
NCI-H1563	0.396	0.517	0.423	0.483	0.848	0.876	0.779	0.925	1.13	1.15	1.03	1.15	1.31	0.647	0.626	0.694	0.677	0.793	0.608
NCI-H596	0.717	0.605	0.48	0.366	1.04	1.08	1	1.21	0.943	0.985	0.857	1.12	1.27	0.839	0.892	0.71	0.771	0.831	0.56
HCC-366	0.559	0.61	0.249	0.0872	1.9	1.06	1	1.33	0.567	0.759	0.183	0.787	1.03	0.651	0.679	0.61	0.703	0.306	0.587
